Data taken from patent publication US20050250113A1, “Mammalian magnesium/manganese sensing G protein coupled receptor” (The Regents of the University of California, priority 2004, published 2005).

Columns and labels:
[1] = molecular target: T1, R5.24 (Homo sapiens, UniProt Q5T6X5); test: Activity assay for R5.24 receptor: stimulus-evoked changes in intracellular calcium in cells expressing R5.24; assay type: cell-based; conditions: FIG. 1 middle panels, calcium signal
T1 construct: expressed in transfected cells; host or cells: human embryonic kidney (HEK) cells containing Gα16-Gαz and/or Gα15 promiscuous G proteins
T1 sequence (Q5T6X5 19-926): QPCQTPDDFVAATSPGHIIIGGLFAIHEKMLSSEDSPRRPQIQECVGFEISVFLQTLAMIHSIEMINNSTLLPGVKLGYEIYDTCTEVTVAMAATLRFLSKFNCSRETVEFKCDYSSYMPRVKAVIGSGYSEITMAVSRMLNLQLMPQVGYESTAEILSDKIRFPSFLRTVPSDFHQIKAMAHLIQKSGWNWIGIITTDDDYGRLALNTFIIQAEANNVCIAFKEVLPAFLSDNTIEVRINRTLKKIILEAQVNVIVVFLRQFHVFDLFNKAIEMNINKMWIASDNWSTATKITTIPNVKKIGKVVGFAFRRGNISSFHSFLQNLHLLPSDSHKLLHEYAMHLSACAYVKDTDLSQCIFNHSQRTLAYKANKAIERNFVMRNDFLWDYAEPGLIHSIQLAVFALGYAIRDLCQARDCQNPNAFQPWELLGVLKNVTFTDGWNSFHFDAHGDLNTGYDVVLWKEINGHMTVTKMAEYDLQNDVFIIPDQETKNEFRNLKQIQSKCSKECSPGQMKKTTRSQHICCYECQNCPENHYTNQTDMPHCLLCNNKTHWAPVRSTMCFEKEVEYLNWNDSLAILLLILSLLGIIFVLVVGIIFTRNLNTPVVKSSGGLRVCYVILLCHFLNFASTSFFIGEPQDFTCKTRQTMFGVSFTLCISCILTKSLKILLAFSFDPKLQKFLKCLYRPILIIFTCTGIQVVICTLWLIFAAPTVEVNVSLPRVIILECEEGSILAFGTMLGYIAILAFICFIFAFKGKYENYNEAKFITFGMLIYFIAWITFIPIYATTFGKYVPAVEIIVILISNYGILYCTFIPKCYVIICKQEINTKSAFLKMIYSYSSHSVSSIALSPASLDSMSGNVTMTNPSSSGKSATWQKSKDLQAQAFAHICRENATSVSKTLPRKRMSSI
Source text: (§1) Candidate receptors are expressed in human embryonic kidney (HEK) cells containing, e.g., the Gα16-Gαz and/or Gα15 promiscuous G proteins (Offermanns et al., J. Biol. Chem. 270:15175-15180 (1995); Mody et al., Mol. Pharmacol. 57:13-23 (2000)), and assayed for stimulus-evoked changes in intracellular calcium. In this system, receptor activation leads to activation of phospholipase Cβ (PLC-β and release of calcium from internal stores, which can be monitored at the single-cell level using calcium-indicator dyes (Chandrashekar et al., Cell 100:703-711 (2000); Nelson et al., Cell 106:381-390 (2001); Tsien et al., Cell Calcium 6:145-157 (1985)).

[2] = test system: cells without the receptor; test: Activity assay control: cells without the receptor stimulated with magnesium or manganese; assay type: cell-based, human; conditions: FIG. 1 right panels
Source text: as §1

Compound	response of cells expressing R5.24 to stimulation [1]	response of cells without the receptor to stimulation [2]
[Mn+2] [manganese]	respond	do not respond
[Mg+2] [magnesium]	respond	do not respond
